Source: PubChem BioAssay AID256 (DTP/NCI, 2004)
Values joined by “and” are separate entries in the source; they are usually repeats but may differ in a detail not shown here. Identical values can stand only once. Inconclusive results and toxic doses are left out.

Tested on: CD2F1 mice, L1210 leukemia ip, survival T/C
Assay: NCI In Vivo Anticancer Drug Screen. Data for tumor model L1210 Leukemia (intraperitoneal) in CD2F1 (CDF1) mice
Conditions: higher = longer survival
Procedure, shortened: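 Compound-dosed mice with transplantable tumor versus matched vehicle controls; endpoint ratio T/C reported.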

[1] = endpoint: mean survival time, dose: 6.25 mg/kg/injection, schedule: Q01DX009 (ip), vehicle: other
[2] = endpoint: mean survival time, dose: 12.5 mg/kg/injection, schedule: Q01DX009 (ip), vehicle: other
[3] = endpoint: mean survival time, dose: 25.0 mg/kg/injection, schedule: Q01DX009 (ip), vehicle: other
[4] = endpoint: mean survival time, dose: 50.0 mg/kg/injection, schedule: Q01DX009 (ip), vehicle: other
[5] = endpoint: mean survival time, dose: 100.0 mg/kg/injection, schedule: Q01DX009 (ip), vehicle: other
[6] = endpoint: mean survival time, dose: 100.0 mg/kg/injection, schedule: Q01DX001 (ip), vehicle: saline
[7] = endpoint: mean survival time, dose: 200.0 mg/kg/injection, schedule: Q01DX001 (ip), vehicle: saline
[8] = endpoint: mean survival time, dose: 400.0 mg/kg/injection, schedule: Q01DX001 (ip), vehicle: saline
[9] = endpoint: mean survival time, dose: 100.0 mg/kg/injection, schedule: Q01DX009 (ip), vehicle: saline with Tween-80
[10] = endpoint: mean survival time, dose: 200.0 mg/kg/injection, schedule: Q01DX009 (ip), vehicle: other
[11] = endpoint: mean survival time, dose: 200.0 mg/kg/injection, schedule: Q01DX009 (ip), vehicle: saline with Tween-80
[12] = endpoint: mean survival time, dose: 400.0 mg/kg/injection, schedule: Q01DX009 (ip), vehicle: other
[13] = endpoint: mean survival time, dose: 100.0 mg/kg/injection, schedule: Q04DX003 (ip), vehicle: saline with Tween-80
[14] = endpoint: mean survival time, dose: 200.0 mg/kg/injection, schedule: Q04DX003 (ip), vehicle: saline with Tween-80
[15] = endpoint: mean survival time, dose: 400.0 mg/kg/injection, schedule: Q04DX003 (ip), vehicle: saline with Tween-80

O=C(c1ccc([N+](=O)[O-])cc1)C(Br)C(Br)c1ccnc2ccccc12 (stereo not drawn)
T/C (endpoint: mean survival time, dose: 12.5 mg/kg/injection, schedule: Q04DX003 (ip), vehicle: saline with Tween-80): 92 % of control | T/C (endpoint: mean survival time, dose: 25.0 mg/kg/injection, schedule: Q04DX003 (ip), vehicle: saline with Tween-80): 98 % of control | T/C (endpoint: mean survival time, dose: 50.0 mg/kg/injection, schedule: Q04DX003 (ip), vehicle: saline with Tween-80): 95 % of control

COc1ccc(C=NC2C(OC(C)=O)OC(COC(C)=O)C(OC(C)=O)C2OC(C)=O)cc1 (stereo not drawn)
T/C [1]: 96 % of control | T/C [2]: 96 % of control | T/C [3]: 93 % of control | T/C [4]: 94 % of control | T/C [5]: 96 % of control

O=C(Nc1ccc(Cl)cc1)Oc1ccc2ccccc2c1
T/C [6]: 96 % of control | T/C [7]: 94 % of control | T/C [8]: 111 % of control

CC1(C)N=C(N)N=C(N)N1c1cccc(CCC(=O)Nc2ccc(S(=O)(=O)F)cc2)c1
T/C (endpoint: mean survival time, dose: 50.0 mg/kg/injection, schedule: Q01DX009 (ip), vehicle: saline): 100 % of control | T/C (endpoint: mean survival time, dose: 100.0 mg/kg/injection, schedule: Q01DX009 (ip), vehicle: saline): 102 % of control | T/C (endpoint: mean survival time, dose: 200.0 mg/kg/injection, schedule: Q01DX009 (ip), vehicle: saline): 105 % of control | T/C (endpoint: mean survival time, dose: 300.0 mg/kg/injection, schedule: Q01DX009 (ip), vehicle: saline): 105 % of control | T/C (endpoint: mean survival time, dose: 400.0 mg/kg/injection, schedule: Q01DX009 (ip), vehicle: saline): 108 % of control

CC1(C)N=C(N)N=C(N)N1c1ccc(OCCOc2ccc(NC(=O)CBr)cc2)cc1
T/C (endpoint: mean survival time, dose: 176.0 mg/kg/injection, schedule: Q01DX006 (ip), vehicle: other): 118 % of control | T/C (endpoint: mean survival time, dose: 266.0 mg/kg/injection, schedule: Q01DX006 (ip), vehicle: other): 124 % of control | T/C (endpoint: mean survival time, dose: 600.0 mg/kg/injection, schedule: Q01DX006 (ip), vehicle: other): 94 % of control

CCOC(=O)n1cnc2ncnc(SC)c21
T/C (endpoint: mean survival time, dose: 50.0 mg/kg/injection, schedule: Q01DX001 (ip), vehicle: other): 95 % of control | T/C [4]: 102 % of control | T/C (endpoint: mean survival time, dose: 50.0 mg/kg/injection, schedule: Q01DX009 (ip), vehicle: saline with Tween-80): 109 % of control | T/C (endpoint: mean survival time, dose: 100.0 mg/kg/injection, schedule: Q01DX001 (ip), vehicle: other): 106 % of control | T/C [5]: 102 % of control | T/C [9]: 101 % of control | T/C (endpoint: mean survival time, dose: 200.0 mg/kg/injection, schedule: Q01DX001 (ip), vehicle: other): 102 % of control | T/C [10]: 123 % of control | T/C [11]: 91 % of control | T/C (endpoint: mean survival time, dose: 400.0 mg/kg/injection, schedule: Q01DX001 (ip), vehicle: other): 108 % of control | T/C [12]: 121 % of control

COc1cc(OC)c(/C=C/c2cc3ccccc3c[n+]2C)c(OC)c1
T/C (endpoint: mean survival time, dose: 3.13 mg/kg/injection, schedule: Q01DX009 (ip), vehicle: saline with Tween-80): 117 % of control | T/C (endpoint: mean survival time, dose: 6.25 mg/kg/injection, schedule: Q01DX009 (ip), vehicle: saline with Tween-80): 117 % of control

C=CCOC(=O)Nc1ccc(S(=O)(=O)N(CCC)CCC)cc1
T/C [6]: 103 % of control | T/C [7]: 101 % of control | T/C [8]: 89 % of control

O=C(CCN1CC1)Nc1cccc(NC(=O)CCN2CC2)c1
T/C (endpoint: mean survival time, dose: 2.5 mg/kg/injection, schedule: Q01DX009 (ip), vehicle: Klucel (hydroxypropylcellulose) (HPC)): 118 % of control | T/C (endpoint: mean survival time, dose: 4.0 mg/kg/injection, schedule: Q01DX009 (ip), vehicle: Klucel (hydroxypropylcellulose) (HPC)): 112 % of control | T/C (endpoint: mean survival time, dose: 10.0 mg/kg/injection, schedule: Q01DX009 (ip), vehicle: Klucel (hydroxypropylcellulose) (HPC)): 156 % of control and 165 % of control | T/C (endpoint: mean survival time, dose: 15.0 mg/kg/injection, schedule: Q01DX009 (ip), vehicle: Klucel (hydroxypropylcellulose) (HPC)): 108 % of control | T/C (endpoint: mean survival time, dose: 20.0 mg/kg/injection, schedule: Q01DX009 (ip), vehicle: Klucel (hydroxypropylcellulose) (HPC)): 96 % of control and 104 % of control

CC(=O)NCCN=Cc1ccccc1
T/C [9]: 97 % of control | T/C [13]: 95 % of control | T/C [11]: 95 % of control | T/C [14]: 95 % of control | T/C (endpoint: mean survival time, dose: 400.0 mg/kg/injection, schedule: Q01DX009 (ip), vehicle: saline with Tween-80): 97 % of control | T/C [15]: 97 % of control

[O-]c1cc2c3c(c1)c1cc4c(cc1c[n+]3C=C2)OCO4
T/C (endpoint: mean survival time, dose: 3.13 mg/kg/injection, schedule: Q01DX009 (ip), vehicle: other): 100 % of control | T/C (endpoint: mean survival time, dose: 3.13 mg/kg/injection, schedule: Q01DX009 (ip), vehicle: water): 114 % of control | T/C [1]: 109 % of control | T/C (endpoint: mean survival time, dose: 6.25 mg/kg/injection, schedule: Q01DX009 (ip), vehicle: water): 120 % of control and 122 % of control | T/C [2]: 110 % of control | T/C (endpoint: mean survival time, dose: 12.5 mg/kg/injection, schedule: Q01DX009 (ip), vehicle: water): 124 % of control | T/C [3]: 118 % of control | T/C (endpoint: mean survival time, dose: 25.0 mg/kg/injection, schedule: Q01DX009 (ip), vehicle: water): 150 % of control | T/C (endpoint: mean survival time, dose: 50.0 mg/kg/injection, schedule: Q01DX009 (ip), vehicle: water): 115 % of control | T/C (endpoint: mean survival time, dose: 100.0 mg/kg/injection, schedule: Q01DX009 (ip), vehicle: water): 124 % of control

COc1ccc(OC)c(C2C(C#N)C(C=O)NC(C=O)C2C#N)c1 (stereo not drawn)
T/C [5]: 100 % of control | T/C [10]: 104 % of control | T/C [12]: 100 % of control

CC1(C)CC(NC2=NCCO2)CC(C)(C)N1
T/C (endpoint: mean survival time, dose: 6.25 mg/kg/injection, schedule: Q01DX001 (ip), vehicle: saline): 94 % of control | T/C (endpoint: mean survival time, dose: 6.25 mg/kg/injection, schedule: Q01DX009 (ip), vehicle: saline): 101 % of control | T/C (endpoint: mean survival time, dose: 12.5 mg/kg/injection, schedule: Q01DX001 (ip), vehicle: saline): 97 % of control | T/C (endpoint: mean survival time, dose: 12.5 mg/kg/injection, schedule: Q01DX009 (ip), vehicle: saline): 98 % of control | T/C (endpoint: mean survival time, dose: 25.0 mg/kg/injection, schedule: Q01DX001 (ip), vehicle: saline): 90 % of control | T/C (endpoint: mean survival time, dose: 25.0 mg/kg/injection, schedule: Q01DX009 (ip), vehicle: saline): 96 % of control

O=C(CC(=O)c1cccc([N+](=O)[O-])c1)Nc1cccc([N+](=O)[O-])c1
T/C (endpoint: mean survival time, dose: 100.0 mg/kg/injection, schedule: Q01DX009 (ip), vehicle: Klucel (hydroxypropylcellulose) (HPC)): 92 % of control | T/C (endpoint: mean survival time, dose: 100.0 mg/kg/injection, schedule: Q04DX003 (ip), vehicle: Klucel (hydroxypropylcellulose) (HPC)): 90 % of control | T/C (endpoint: mean survival time, dose: 200.0 mg/kg/injection, schedule: Q01DX009 (ip), vehicle: Klucel (hydroxypropylcellulose) (HPC)): 92 % of control | T/C (endpoint: mean survival time, dose: 200.0 mg/kg/injection, schedule: Q04DX003 (ip), vehicle: Klucel (hydroxypropylcellulose) (HPC)): 96 % of control | T/C (endpoint: mean survival time, dose: 400.0 mg/kg/injection, schedule: Q01DX009 (ip), vehicle: Klucel (hydroxypropylcellulose) (HPC)): 94 % of control | T/C (endpoint: mean survival time, dose: 400.0 mg/kg/injection, schedule: Q04DX003 (ip), vehicle: Klucel (hydroxypropylcellulose) (HPC)): 96 % of control

O=C1C(Br)C2CCC1C2C(=O)O (stereo not drawn)
T/C [13]: 101 % of control | T/C [14]: 98 % of control | T/C [15]: 98 % of control

CN(C)c1ccc2c(N(C)C)cc(N(C)C)nc2c1
T/C (endpoint: mean survival time, dose: 0.78 mg/kg/injection, schedule: Q01DX009 (ip), vehicle: Klucel (hydroxypropylcellulose) (HPC)): 106 % of control | T/C (endpoint: mean survival time, dose: 1.56 mg/kg/injection, schedule: Q01DX009 (ip), vehicle: Klucel (hydroxypropylcellulose) (HPC)): 102 % of control | T/C (endpoint: mean survival time, dose: 3.12 mg/kg/injection, schedule: Q01DX009 (ip), vehicle: Klucel (hydroxypropylcellulose) (HPC)): 104 % of control | T/C (endpoint: mean survival time, dose: 6.25 mg/kg/injection, schedule: Q01DX009 (ip), vehicle: Klucel (hydroxypropylcellulose) (HPC)): 98 % of control | T/C (endpoint: mean survival time, dose: 12.5 mg/kg/injection, schedule: Q01DX009 (ip), vehicle: Klucel (hydroxypropylcellulose) (HPC)): 113 % of control and 96 % of control | T/C (endpoint: mean survival time, dose: 25.0 mg/kg/injection, schedule: Q01DX009 (ip), vehicle: Klucel (hydroxypropylcellulose) (HPC)): 88 % of control

C/C=C/CC(C)C(O)C1C(=O)NC(CC)C(=O)N(C)CC(=O)N(C)C(CC(C)C)C(=O)NC(C(C)C)C(=O)N(C)C(CC(C)C)C(=O)NC(C)C(=O)NC(C)C(=O)N(C)C(CC(C)C)C(=O)N(C)C(CC(C)C)C(=O)N(C)C(C(C)C)C(=O)N1C (stereo not drawn)
T/C (endpoint: median survival time, dose: 25.0 mg/kg/injection, schedule: Q01DX009 (ip), vehicle: Klucel (hydroxypropylcellulose) (HPC)): 102 % of control | T/C (endpoint: median survival time, dose: 50.0 mg/kg/injection, schedule: Q01DX009 (ip), vehicle: Klucel (hydroxypropylcellulose) (HPC)): 107 % of control | T/C (endpoint: median survival time, dose: 100.0 mg/kg/injection, schedule: Q01DX009 (ip), vehicle: Klucel (hydroxypropylcellulose) (HPC)): 106 % of control
